In patent US7659245B2, “Macrocylic inhibitors of hepatitis C virus” (Tibotec Pharmaceuticals Ltd, priority 2005, dated 2010) one finds ring closure, isolated yield, Ki and EC50 data, which are given here for 15 compounds.

Like-named read-outs stand apart in the source and are kept apart here.

For data set [1] the following is noted: rcm bond, DCE.
In data set [2] the target is full-length hepatitis C NS3 protease enzyme (HCV NS3/4A protease complexes) (Hepatitis C virus genotype 1a, UniProt P27958). In words: Inhibition assay (enzymatic assay) of HCV NS3/4A protease. The class given is biochemical. Conditions: enzyme 1 nM, 25 μM NS4A cofactor, 0.5 μM depsipeptide substrate, 30° C., competitive model. The procedure: The aim of this in vitro assay is to measure the inhibition of HCV NS3/4A protease complexes by the compounds of the present invention. This assay provides an indication of how effective compounds of the present invention would be in inhibiting HCV NS3/4A proteolytic activity.
full-length hepatitis C NS3 protease enzyme (HCV NS3/4A protease complexes), sequence (P27958 1027-1657, one chain of several): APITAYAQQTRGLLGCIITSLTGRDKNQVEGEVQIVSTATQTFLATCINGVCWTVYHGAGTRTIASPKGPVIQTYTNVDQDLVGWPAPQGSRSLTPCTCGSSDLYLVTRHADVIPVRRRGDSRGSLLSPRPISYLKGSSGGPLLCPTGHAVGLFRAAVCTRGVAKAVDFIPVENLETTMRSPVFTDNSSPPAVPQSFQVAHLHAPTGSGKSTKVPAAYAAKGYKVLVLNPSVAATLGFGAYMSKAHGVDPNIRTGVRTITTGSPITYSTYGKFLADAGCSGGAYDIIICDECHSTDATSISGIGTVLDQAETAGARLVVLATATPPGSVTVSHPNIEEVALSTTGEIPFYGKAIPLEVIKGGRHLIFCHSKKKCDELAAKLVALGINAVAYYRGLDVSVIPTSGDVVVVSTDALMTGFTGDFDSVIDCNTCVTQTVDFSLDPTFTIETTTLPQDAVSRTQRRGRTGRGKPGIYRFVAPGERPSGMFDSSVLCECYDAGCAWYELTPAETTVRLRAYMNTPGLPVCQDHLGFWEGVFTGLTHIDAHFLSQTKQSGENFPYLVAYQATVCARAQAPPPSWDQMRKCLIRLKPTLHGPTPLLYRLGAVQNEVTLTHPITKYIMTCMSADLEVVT
The inhibition of full-length hepatitis C NS3 protease enzyme was measured essentially as described in Poliakov, 2002 Prot Expression & Purification 25 363 371. Briefly, the hydrolysis of a depsipeptide substrate, Ac-DED(Edans)EEAbuψ[COO]ASK(Dabcyl)-NH2 (AnaSpec, San José, USA), was measured spectrofluorometrically in the presence of a peptide cofactor, KKGSVVIVGRIVLSGK (Åke Engström, Department of Medical Biochemistry and Microbiology, Uppsala University, Sweden). [Landro, 1997 #Biochem 36 9340-9348]. The enzyme (1 nM) was incubated in 50 mM HEPES, pH 7.5, 10 mM DTT, 40% glycerol, 0.1% n-octyl-D-glucoside, with 25 μM NS4A cofactor and inhibitor at 30° C. for 10 min, whereupon the reaction was initiated by addition of 0.5 μM substrate. Inhibitors were dissolved in DMSO, sonicated for 30 sec. and vortexed. The solutions were stored at −20° C. between measurements.
The final concentration of DMSO in the assay sample was adjusted to 3.3%. The rate of hydrolysis was corrected for inner filter effects according to published procedures. [Liu, 1999 Analytical Biochemistry 267 331-335]. Ki values were estimated by non-linear regression analysis (GraFit, Erithacus Software, Staines, MX, UK), using a model for competitive inhibition and a fixed value for Km (0.15 μM). A minimum of two replicates was performed for all measurements.

Data set [3] deals with HCV replicons (Huh-7 luc/neo cells, NS3-NS5B regions of HCV type 1b). In words: Replicon assay: inhibition of HCV RNA replication in Huh-Luc cells (luciferase read-out). It is filed as cell-based. The settings on record: HCV type 1b replicon, luciferase activity after three days. The procedure:
The in vitro antiviral activity against HCV of the compounds of formula (I) was tested in a cellular HCV replicon system based on Lohmann et al. (1999) Science 285:110-113, with the further modifications described by Krieger et al. (2001) Journal of Virology 75: 4614-4624 (incorporated herein by reference), which is further exemplified in the examples section. This model, while not a complete infection model for HCV, is widely accepted as the most robust and efficient model of autonomous HCV RNA replication currently available. […] It will be appreciated that it is important to distinguish between compounds that specifically interfere with HCV functions from those that exert cytotoxic or cytostatic effects in the HCV replicon model, and as a consequence cause a decrease in HCV RNA or linked reporter enzyme concentration. Assays are known in the field for the evaluation of cellular cytotoxicity based for example on the activity of mitochondrial enzymes using fluorogenic redox dyes such as resazurin. Furthermore, cellular counter screens exist for the evaluation of non-selective inhibition of linked reporter gene activity, such as firefly luciferase. Appropriate cell types can be equipped by stable transfection with a luciferase reporter gene whose expression is dependent on a constitutively active gene promoter, and such cells can be used as a counter-screen to eliminate non-selective inhibitors.
The compounds of formula (I) were examined for activity in the inhibition of HCV RNA replication in a cellular assay. […] The cellular assay was based on a bicistronic expression construct, as described by Lohmann et al. (1999) Science vol. 285 pp. 110-113 with modifications described by Krieger et al. (2001) Journal of Virology 75: 4614-4624, in a multi-target screening strategy. In essence, the method was as follows.
The assay utilized the stably transfected cell line Huh-7 luc/neo (hereafter referred to as Huh-Luc). This cell line harbors an RNA encoding a bicistronic expression construct comprising the wild type NS3-NS5B regions of HCV type 1b translated from an Internal Ribosome Entry Site (IRES) from encephalomyocarditis virus (EMCV), preceded by a reporter portion (FfL-luciferase), and a selectable marker portion (neo^R, neomycine phosphotransferase). The construct is bordered by 5′ and 3′ NTRs (non-translated regions) from HCV type 1b. Continued culture of the replicon cells in the presence of G418 (neo^R) is dependent on the replication of the HCV RNA. The stably transfected replicon cells that express HCV RNA, which replicates autonomously and to high levels, encoding inter alia luciferase, are used for screening the antiviral compounds.
The replicon cells were plated in 384 well plates in the presence of the test and control compounds which were added in various concentrations. Following an incubation of three days, HCV replication was measured by assaying luciferase activity (using standard luciferase assay substrates and reagents and a Perkin Elmer ViewLux™ ultraHTS microplate imager). Replicon cells in the control cultures have high luciferase expression in the absence of any inhibitor. The inhibitory activity of the compound on luciferase activity was monitored on the Huh-Luc cells, enabling a dose-response curve for each test compound. EC50 values were then calculated, which value represents the amount of the compound required to decrease by 50% the level of detected luciferase activity, or more specifically, the ability of the genetically linked HCV replicon RNA to replicate.
(In general: In antiviral work, replicon cells carry a viral genome segment that copies itself.)

On to `CCOC(=O)C12CC1C=CCCCCCN(Cc1ccc(OC)cc1)C(=O)N1CC(OC(=O)c3ccc([N+](=O)[O-])cc3)CC1C(=O)N2` (centres unmarked), for which, in data set [1] (from C=CCCCCCN(Cc1ccc(OC)cc1)C(=O)N1CC(OC(=O)c2ccc([N+](=O)[O-])cc2)CC1C(=O)NC1(C(=O)OCC)CC1C=C, 15-membered ring, Hoveyda-Grubbs II (5 mol%), then LiOH, 0.74 mM, 2 steps), the ring closure, isolated yield was determined as 61%.
Take `CCOC(=O)C12CC1C=CCCCCN(C)C(=O)C1CC(Oc3nc(-c4ccc(OC)cc4)nc4c(C)c(OC)ccc34)CC1C(=O)N2` (centres unmarked): the ring closure, isolated yield in data set [1] (from C=CCCCCN(C)C(=O)C1CC(Oc2nc(-c3ccc(OC)cc3)nc3c(C)c(OC)ccc23)CC1C(=O)NC1(C(=O)OCC)CC1C=C, 14-membered ring, Hoveyda-Grubbs II, 1.71 mM, 16.0 h) turned out to be 75%.
For `CCOC(=O)C12CC1C=CCCCCN(C)C(=O)C1CC(Oc3nc(-c4cccc(F)c4)nc4c(C)c(OC)ccc34)CC1C(=O)N2` (centres unmarked), the ring closure, isolated yield in data set [1] (from C=CCCCCN(C)C(=O)C1CC(Oc2nc(-c3cccc(F)c3)nc3c(C)c(OC)ccc23)CC1C(=O)NC1(C(=O)OCC)CC1C=C, 14-membered ring, Hoveyda-Grubbs II, 1.49 mM, 16.0 h) came out at 70%.
In data set [1] (14-membered ring, Hoveyda-Grubbs I, with chain assembly), `COc1ccc2c(OC3CC4C(=O)NC5(C(=O)O)CC5C=CCCCCN(C)C(=O)N4C3)nc(-c3ccc(F)cc3)nc2c1C` (centres unmarked) had a ring closure, isolated yield of 20%.
In the case of `CCOc1nc(O[C@@H]2C[C@H]3C(=O)N[C@]4(C(=O)NS(=O)(=O)C5CC5)C[C@H]4/C=C\CCCCN(C)C(=O)[C@@H]3C2)c2ccc(OC)c(C)c2n1` [Compound 150, N-[17-[2-Ethoxy-7-methoxy-8-methylquinazolin-4-yloxy]-13-methyl-2,14-dioxo-3,13-diazatricyclo[13.3.0.0^4,6]octadec-7-ene-4-carbonyl](cyclopropyl)sulfonamide], the Ki (usually the dissociation constant of the complex between target and ligand, obtained from inhibition or displacement) in data set [2] lay within 0.1 to 4.9 nM. The EC50 (as a rule, the concentration that produces a half-maximal response) in data set [3] (Hepatitis C virus, Huh-7, 72 h) was 0.5 to 199 nM.
`COc1ccc2c(O[C@H]3CC4C(=O)N(C)CCCC/C=C\[C@@H]5C[C@@]5(C(=O)NS(=O)(=O)C5CC5)NC(=O)[C@@H]4C3)nc(-c3ccc(F)cc3)nc2c1C` (some centres unmarked) [Compound 154]: in data set [2], the Ki lay in the range of 0.1 to 4.9 nM. The EC50 in data set [3] (Hepatitis C virus, Huh-7, 72 h) is 0.5 to 199 nM.
Taken in the same sequence, the figures for `COc1ccc2c(O[C@@H]3C[C@H]4C(=O)N[C@]5(C(=O)NS(=O)(=O)C6CC6)C[C@H]5/C=C\CCCCN(C)C(=O)[C@@H]4C3)nc(-c3cccc(F)c3)nc2c1C` [Compound 160, Cyclopropanesulfonic acid {17-[2-(3-fluoro-phenyl)-7-methoxy-8-methyl-quinazolin-4-yloxy]-13-methyl-2,14-dioxo-3,13-diaza-tricyclo[13.3.0.0*4,6*]octadec-7-ene-4-carbonyl}-amide] were 0.1 to 4.9 nM and 0.5 to 199 nM.
Taken in the same sequence, the figures for `COc1ccc2c(O[C@@H]3C[C@H]4C(=O)N[C@]5(C(=O)NS(=O)(=O)C6(C)CC6)C[C@H]5/C=C\CCCCN(C)C(=O)[C@@H]4C3)nc(-c3cccc(F)c3)nc2c1C` [Compound 161, 1-Methyl-cyclopropanesulfonic acid {17-[2-(3-fluoro-phenyl)-7-methoxy-8-methyl-quinazolin-4-yloxy]-13-methyl-2,14-dioxo-3,13-diazatricyclo[13.3.0.0*4,6*]octadec-7-ene-4-carbonyl}-amide] were 0.1 to 4.9 nM and 0.5 to 199 nM.
Taken in the same sequence, the figures for `COc1ccc2c(O[C@@H]3C[C@H]4C(=O)N[C@]5(C(=O)NS(=O)(=O)C(C)C)C[C@H]5/C=C\CCCCN(C)C(=O)[C@@H]4C3)nc(-c3cccc(F)c3)nc2c1C` [Compound 162, Propane-2-sulfonic acid {17-[2-(3-fluoro-phenyl)-7-methoxy-8-methyl-quinazolin-4-yloxy]-13-methyl-2,14-dioxo-3,13-diazatricyclo[13.3.0.0*4,6*]octadec-7-ene-4-carbonyl}-amide] were 0.1 to 4.9 nM and 200 to 990 nM.
In data set [2], `COc1ccc2c(O[C@@H]3C[C@H]4C(=O)N[C@]5(C(=O)NS(=O)(=O)C6CC6)C[C@H]5/C=C\CCCCN(C)C(=O)N4C3)nc(-c3cccc(F)c3)nc2c1C` [Compound 165, Cyclopropanesulfonic acid {17-[2-(3-fluoro-phenyl)-7-methoxy-8-methyl-quinazolin-4-yloxy]-13-methyl-2,14-dioxo-3,13,15-triaza-tricyclo[13.3.0.0*4,6*]octadec-7-ene-4-carbonyl}-amide] had a Ki of 0.1 to 4.9 nM. Also, the concentration giving a half-maximal response (EC50) in data set [3] (Hepatitis C virus, Huh-7, 72 h) was 0.5 to 199 nM.
`COc1ccc2c(O[C@@H]3C[C@H]4C(=O)N[C@]5(C(=O)NS(=O)(=O)C6CC6)C[C@H]5/C=C\CCCCN(C)C(=O)[C@@H]4C3)nc(-c3cc(F)cc(F)c3)nc2c1C` [Compound 170, Cyclopropanesulfonic acid {17-[2-(3,5-difluoro-phenyl)-7-methoxy-8-methyl-quinazolin-4-yloxy]-13-methyl-2,14-dioxo-3,13-diaza-tricyclo[13.3.0.0*4,6*]octadec-7-ene-4-carbonyl}-amide] came in with a Ki in data set [2] of 5 to 99.9 nM. The EC50 in data set [3] (Hepatitis C virus, Huh-7, 72 h) lay within 0.5 to 199 nM.
Taken in the same sequence, the figures for `COc1ccc2c(O[C@@H]3C[C@H]4C(=O)N[C@]5(C(=O)NS(=O)(=O)C6CC6)C[C@H]5/C=C\CCCCCNC(=O)N4C3)nc(-c3ccccc3)nc2c1C` [Compound 174, Cyclopropanesulfonic acid [18-(7-methoxy-8-methyl-2-phenyl-quinazolin-4-yloxy)-2,15-dioxo-3,14,16-triaza-tricyclo[14.3.0.0*4,6*]nonadec-7-ene-4-carbonyl]-amide] were 0.1 to 4.9 nM and 0.5 to 199 nM.
`COc1ccc2c(O[C@@H]3C[C@H]4C(=O)N[C@]5(C(=O)NS(=O)(=O)C6(C)CC6)C[C@H]5/C=C\CCCCCNC(=O)N4C3)nc(-c3ccccc3)nc2c1C` [Compound 176, 1-Methyl-cyclopropanesulfonic acid [18-(7-methoxy-8-methyl-2-phenyl-quinazolin-4-yloxy)-2,15-dioxo-3,14,16-triaza-tricyclo[14.3.0.0*4,6*]nonadec-7-ene-4-carboyl]-amide] returned a Ki in data set [2] of 0.1 to 4.9 nM. Further, in data set [3] (Hepatitis C virus, Huh-7, 72 h), the half-maximal effective concentration (EC50) was 0.5 to 199 nM.
In data set [2], `COc1ccc2c(O[C@@H]3C[C@H]4C(=O)N[C@]5(C(=O)NS(=O)(=O)C6CC6)C[C@H]5/C=C\CCCCN(C)C(=O)N4C3)nc(-c3ccncc3)nc2c1C` [Compound 179, Cyclopropanesulfonic acid [17-(7-methoxy-8-methyl-2-pyridin-4-yl-quinazolin-4-yloxy)-13-methyl-2,14-dioxo-3,13,15-triaza-tricyclo[13.3.0.0*4,6*]octadec-7-ene-4-carbonyl]-amide] displayed a Ki of 0.1 to 4.9 nM. The EC50 in data set [3] (Hepatitis C virus, Huh-7, 72 h) lay within 0.5 to 199 nM.
For the compound “Cyclopropanesulfonic acid {13-methyl-2,14-dioxo-17-[2-(5H-pyrazol-1-yl)-quinazolin-4-yloxy]-3,13-diaza-tricyclo[13.3.0.0*4,6*]octadec-7-ene-4-carbonyl-amide [Compound 70]”, the Ki in data set [2] was greater than 1000 nM. Also, in data set [3], the EC50 is greater than 10000 nM.
